From US9593108B2, “Compounds and methods for antiviral treatment” (PTC Therapeutics, Inc., priority 2009, dated 2017) come the findings set out here.

Data set [1] relates to HCV replicon RNA (GenBank Accession No. AJ242654). In words: HCV Replicon Assay (replicon RNA reduction and/or Fluc reporter signal). Type of data set: cell-based, Hepatitis C virus. The note with it: Hepatitis C virus, 72 h, replicon-containing cells cultured with test compound for up to 3 days. A digest of the protocol: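 Bicistronic replicon-containing cells cultured with compound for up to 3 days, with interferon as positive control. Inhibition quantified by replicon RNA reduction and/or Fluc reporter signal; IC50 values generally derived from replicon RNA reduction.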
Background: A replicon is a self-replicating genome or part of one, used to study replication in cells.

In general, IC50 refers to the concentration needed to halve the response being measured. A high value points to lower potency. By melting point is commonly meant the temperature of the solid-liquid transition. Compound `Cc1ccc2c(C#N)c(-c3ccc(S(=O)(=O)NC4(C)CC4)cc3)n(C3CCC3)c2n1` [Cpd 143, 4-(3-cyano-1-cyclobutyl-6-methyl-1H-pyrrolo[2,3-b]pyridin-2-yl)-N-(1-methylcyclopropyl)benzenesulfonamide] showed a melting point of 200 to 207 °C. In data set [1], this compound came in with an IC50 below 500 nM.
In the same order, the values of `CC(C)S(=O)(=O)Nc1ccc(-c2c(C(N)=O)c3cc(C(F)(F)F)cnc3n2C2CCCCC2)cc1` [Cpd 446, 1-cyclohexyl-2-{4-[(propan-2-ylsulfonyl)amino]phenyl}-5-(trifluoromethyl)-1H-pyrrolo[2,3-b]pyridine-3-carboxamide] are 203 to 205 °C and below 500 nM.
The like results for `Cc1ccc2c(C#N)c(-c3ccc(S(=O)(=O)NC(C)C)nc3)n(C3CCC3)c2n1` [Cpd 96, 5-(3-cyano-1-cyclobutyl-6-methyl-1H-pyrrolo[2,3-b]pyridin-2-yl)-N-(propan-2-yl)pyridine-2-sulfonamide] were, in that order, 211 to 216 °C and below 500 nM.
The like results for `CCCS(=O)(=O)Nc1ccc(-c2c(C#N)c3cc(C(F)(F)F)cnc3n2C2CCC2)cc1` [Cpd 247, N-{4-[3-cyano-1-cyclobutyl-5-(trifluoromethyl)-1H-pyrrolo[2,3-b]pyridin-2-yl]phenyl}propane-1-sulfonamide] were, in that order, 180 to 181 °C and 500 to 2000 nM.
Compound `C[C@H](NS(=O)(=O)c1ccc(-c2c(C#N)c3cc(Cl)cnc3n2-c2ncccn2)nc1)C(F)(F)F` [Cpd 270, 6-[5-chloro-3-cyano-1-(pyrimidin-2-yl)-1H-pyrrolo[2,3-b]pyridin-2-yl]-N-[(2S)-1,1,1-trifluoropropan-2-yl]pyridine-3-sulfonamide] yielded a melting point of 223 to 225 °C. The same compound came in with an IC50 in data set [1] below 500 nM.
In the same order, the values of `CC1(S(=O)(=O)Nc2ccc(-c3c(C#N)c4cc(C(F)(F)F)cnc4n3C3CCCCC3)cc2)CC1` [Cpd 426, N-{4-[3-cyano-1-cyclohexyl-5-(trifluoromethyl)-1H-pyrrolo[2,3-b]pyridin-2-yl]phenyl}-1-methylcyclopropanesulfonamide] are 255 to 256 °C and below 500 nM.
On to `Cc1ccc2c(C#N)c(-c3ccc(S(=O)(=O)NC(CF)CF)cc3)n(C3CCC3)c2n1` [Cpd 145, 4-(3-cyano-1-cyclobutyl-6-methyl-1H-pyrrolo[2,3-b]pyridin-2-yl)-N-(1,3-difluoropropan-2-yl)benzenesulfonamide], for which the melting point lay within 182 to 193 °C. This compound yielded a half-inhibitory concentration (IC50) in data set [1] below 500 nM.
Regarding `N#Cc1c(-c2ccc(S(=O)(=O)NC(CF)CF)cn2)n(C2CCC2)c2ncc(F)cc12` [Cpd 12, 6-(3-cyano-1-cyclobutyl-5-fluoro-1H-pyrrolo[2,3-b]pyridin-2-yl)-N-(1,3-difluoropropan-2-yl)pyridine-3-sulfonamide], the melting point is 155 to 157 °C. Also, the concentration for half-maximal inhibition (IC50) in data set [1] is 500 to 2000 nM.
In the same order, the values of `Cc1cnc2c(c1)c(C#N)c(-c1ccc(S(=O)(=O)N[C@@H](C)C(F)(F)F)cn1)n2CC(C)C` [Cpd 495, 6-[3-cyano-5-methyl-1-(2-methylpropyl)-1H-pyrrolo[2,3-b]pyridin-2-yl]-N-[(2S)-1,1,1-trifluoropropan-2-yl]pyridine-3-sulfonamide] are 125 to 130 °C and below 500 nM.
For the compound `Cc1ccc2c(C#N)c(-c3ncc(S(=O)(=O)N[C@H](C)C(F)(F)F)cn3)n(C3CCC3)c2n1` [Cpd 138, 2-(3-cyano-1-cyclobutyl-6-methyl-1H-pyrrolo[2,3-b]pyridin-2-yl)-N-[(2R)-1,1,1-trifluoropropan-2-yl]pyrimidine-5-sulfonamide], the melting point lay within 205 to 209 °C. In data set [1], the half-inhibitory concentration (IC50) was in the range of 500 to 2000 nM.
In the same order, the values of `C[C@H](NS(=O)(=O)c1ccc(-c2c(C#N)c3ncc(Cl)cc3n2C2CCC2)cc1)C(F)(F)F` [Cpd 235, 4-(6-chloro-3-cyano-1-cyclobutyl-1H-pyrrolo[3,2-b]pyridin-2-yl)-N-[(2S)-1,1,1-trifluoropropan-2-yl]benzenesulfonamide] are 205 to 210 °C and 500 to 2000 nM.
